Read-outs that look alike come from different tables or passages of the source.
How the values were obtained:
[1] = test system: WI-38 cells; test: MMS resistance assay; assay type: cell-based, human; conditions: for fold induction at 10 µM: Homo sapiens, 12 h, normalized ATP measurement
Method in brief: (§1)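 Resistance to CdCl2 or MMS stress (12 h exposure) was scored in WI-38 fibroblasts pretreated with compound at 0.25–20 μM final, five doses, technical triplicates. MMS plates had compound added 24 h before MMS, after a shift to serum-free DMEM+2% BSA. Significance came from a global variance t-test over two independent runs.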

[2] = molecular target: T1, human PARP1 (Homo sapiens, UniProt P09874); test: PARP inhibitor assay (HT Fluorescent Homogeneous PARP Inhibition Assay Kit); assay type: biochemical; conditions: score
T1 construct: purchased Trevigen
Method in brief: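 Compounds (10 μM final) incubated 30 min, room temperature, dark, with human PARP1, nicotinamide adenine dinucleotide and activated DNA. Fluorescent signal generated by 1 hr cycling with diaphorase and resazurin, then reaction stopped.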

[3] = test system: WI-38 cells; test: CdCl2 (cadmium) resistance assay; assay type: cell-based, human; conditions: for fold induction at 10 µM: Homo sapiens, 12 h, normalized ATP measurement; for Assay 4: H2O2- & Cd-resistant / Assay 2: Cadmium-resistant: YES/NO; for Assay 2: Cadmium-resistant: * indicates partial
Method in brief: as §1

[4] = test system: phosphorylated γH2A.X and TP53BP1; test: DNA damage marker analysis (immuno-staining); conditions: for activity at 10 µM: Homo sapiens, WI-38, 24 h; for P = Potential DNA-damaging / R = Potential DNA damaging: human, 24 h
Method in brief: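 Immunofluorescence read-out for phospho-γH2A.X (Ser-139) and phospho-TP53BP1 (Ser-1778), with DAPI nuclear stain and automated imaging at 10×. WI-38 cells (~8,000 per well) were exposed to small molecules for 24 h after 24 h of culture, with doxorubicin (300 nM, 24 h) or H2O2 (700 μM, 3 h) as positive damage controls.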

[5] = test system: C. elegans; test: C. elegans lifespan assays (liquid and plate); assay type: in vivo, Caenorhabditis elegans; conditions: for ILS at 60 µM / ILS at 66 µM: Caenorhabditis elegans; for O = Life span- extending scores in worms: score scale 0 to 2, 4 to 6 independent trials; for M = Lifespan-extending scores in worms: summary score
[6] = Exp. 1, WI-38 cells, read-out: Exp. 1, under MMS stress treatment, at 10 uM (fold change)
[7] = Exp. 2, WI-38 cells, read-out: Exp. 2, under MMS stress treatment, at 10 uM (fold change)
[8] = score in summary of 38 core set hits
[9] = Exp. 1, WI-38 cells, read-out: Exp. 1, under Cd2Cl2 stress treatment, at 10 uM (fold change)
[10] = Exp. 2, WI-38 cells, read-out: Exp. 2, under Cd2Cl2 stress treatment, at 10 uM (fold change)
[11] = read-out: Experiment 1, H2A.X-P DNA damage foci staining (no H2O2 stress treatment), at 10 uM
[12] = read-out: Experiment 2, H2A.X-P DNA damage foci staining (no H2O2 stress treatment), at 10 uM
[13] = read-out: Experiment 2, H2A.X-P DNA damage foci staining (under H2O2 stress treatment), at 10 uM
[14] = read-out: Experiment 2, TP53BP1-P DNA damage foci staining (no H2O2 stress treatment), at 10 uM
[15] = read-out: Experiment 2, TP53BP1-P DNA damage foci staining (under H2O2 stress treatment), at 10 uM
[16] = 60 μM, in liquid, wild type, with FuDR, 1.0 × 10^9 bacteria/ml, read-out: relative change of mean lifespan vs control, Trial 1
[17] = 60 μM, in liquid, wild type, with FuDR, 2.5 × 10^9 bacteria/ml, read-out: relative change of mean lifespan vs control, Trial 2
[18] = 60 μM, on plate, CF512 temperature-sensitive sterile animals, without FuDR, 1.0 × 10^11 bacteria/ml, read-out: relative change of mean lifespan vs control, Trial 4
[19] = 60 μM, on plate, CF512 temperature-sensitive sterile animals, without FuDR, 2.0 × 10^10 bacteria/ml, read-out: relative change of mean lifespan vs control, Trial 3
[20] = Assay 2(z), 1.0 × 10^9 bacteria/ml, wild type + FuDR (2012 July), read-out: Lifespan assay in liquid
[21] = Assay 3(aa), 2.5 × 10^9 bacteria/ml, wild type + FuDR, read-out: Lifespan assay in liquid
[22] = Assay 4(ab), 2.0 × 10^10 bacteria/ml, CF512 worms, no FuDR, read-out: Lifespan assay on plates
[23] = Assay 5(ac), 1.0 × 10^11 bacteria/ml, CF512 worms, no FuDR, read-out: Lifespan assay on plates

T1 sequence (P09874 whole entry): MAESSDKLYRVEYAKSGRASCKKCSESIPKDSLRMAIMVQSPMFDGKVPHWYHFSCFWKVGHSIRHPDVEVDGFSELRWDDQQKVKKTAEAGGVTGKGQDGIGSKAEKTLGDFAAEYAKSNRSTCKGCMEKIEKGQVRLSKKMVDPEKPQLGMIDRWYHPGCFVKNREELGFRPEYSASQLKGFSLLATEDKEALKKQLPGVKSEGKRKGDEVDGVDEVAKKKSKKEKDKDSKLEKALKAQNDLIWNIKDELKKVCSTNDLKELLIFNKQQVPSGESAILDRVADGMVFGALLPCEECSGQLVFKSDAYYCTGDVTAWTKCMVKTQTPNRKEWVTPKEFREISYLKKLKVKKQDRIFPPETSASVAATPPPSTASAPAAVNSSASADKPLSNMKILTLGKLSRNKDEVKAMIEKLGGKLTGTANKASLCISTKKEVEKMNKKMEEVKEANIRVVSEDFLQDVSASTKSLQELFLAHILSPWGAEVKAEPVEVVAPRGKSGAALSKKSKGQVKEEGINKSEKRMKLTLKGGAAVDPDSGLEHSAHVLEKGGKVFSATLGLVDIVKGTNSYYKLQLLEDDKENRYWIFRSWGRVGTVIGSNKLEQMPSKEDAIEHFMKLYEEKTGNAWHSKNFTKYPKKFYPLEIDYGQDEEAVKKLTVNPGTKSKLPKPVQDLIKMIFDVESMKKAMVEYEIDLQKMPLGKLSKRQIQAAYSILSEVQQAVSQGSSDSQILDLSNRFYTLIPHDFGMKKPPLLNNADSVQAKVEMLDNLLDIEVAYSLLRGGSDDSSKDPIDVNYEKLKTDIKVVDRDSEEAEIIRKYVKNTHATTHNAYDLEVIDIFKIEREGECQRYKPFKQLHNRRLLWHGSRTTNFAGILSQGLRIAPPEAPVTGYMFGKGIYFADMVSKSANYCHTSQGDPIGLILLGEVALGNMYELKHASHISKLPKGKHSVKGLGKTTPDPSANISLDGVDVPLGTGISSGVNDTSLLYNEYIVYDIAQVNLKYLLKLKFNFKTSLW

O=C(c1ccc([N+](=O)[O-])o1)N1CCc2ccccc21 [O13]
fold induction at 10 µM [1, 6]: 1.11
fold induction at 10 µM [1, 7]: 2.24
Assay 3: MMS-resistant ([1]; YES/NO, * indicates partial): YES
Assay 5: Triple resistant ([1]; YES/NO, H2O2, cadmium and MMS): YES
B = MMS resistant [1, 8]: 0
B = MMS resistant ([1]; summary score): 1
D = Triple resistant ([1]; summary score): 2
L = PARP inhibition [2]: 0
fold induction at 10 µM [3, 9]: 1.27
fold induction at 10 µM [3, 10]: 1.55
Assay 4: H2O2- & Cd-resistant [3]: YES
Assay 2: Cadmium-resistant [3]: YES
A = Cadmium resistant [3, 8]: 0
A = Cadmium resistant ([3]; summary score): 1
C = H2O2- & Cd-resistant ([3]; summary score): 1
activity at 10 µM [4, 11]: 145%
activity at 10 µM [4, 12]: 98.3%
activity at 10 µM [4, 13]: 152%
activity at 10 µM [4, 14]: 238%
activity at 10 µM [4, 15]: 673%
P = Potential DNA-damaging [4]: 0
R = Potential DNA damaging [4]: 0
relative change of mean lifespan vs control, Trial 6 (confirmative) ([5]; 60 μM, on plate, temperature-sensitive sterile animals, without FuDR, 1.0 × 10^11 bacteria/ml): +15.3%
relative change of mean lifespan vs control, Trial 5 (confirmative) ([5]; 60 μM, on plate, temperature-sensitive sterile animals, without FuDR, 2.0 × 10^10 bacteria/ml): +8.4%
Lifespan, average increase ([5]; 4 or more trials): 18.2%
ILS at 60 µM [5, 16]: 32.7%
ILS at 60 µM [5, 17]: 10.3%
ILS at 60 µM [5, 18]: 15%
ILS at 60 µM [5, 19]: 27.3%
ILS at 66 µM [5, 20]: 32.7%
ILS at 66 µM [5, 21]: 10.3%
ILS at 66 µM [5, 22]: 27.3%
ILS at 66 µM [5, 23]: 15%
ILS at 66 µM ([5]; Assay 6(ad), 2.0 × 10^10 bacteria/ml, CF512 worms, no FuDR, read-out: Lifespan assay on plates): 8.4%
ILS at 66 µM ([5]; Assay 7(ae), 1.0 × 10^11 bacteria/ml, CF512 worms, no FuDR, read-out: Lifespan assay on plates): 15.3%
Extension of C. elegans' lifespan (qualitative) ([5]; in at least 3 to 4 trials, group range ~10% to ~50%): could extend animal's lifespan
O = Life span- extending scores in worms [5]: 2 (2 for observed in more than 2 trials)
M = Lifespan-extending scores in worms [5]: 2 (2 for observed in more than 2 trials)
Lifespan, mean (FIG. 6B) ([5]; temperature-sensitive sterile rollers, on plate, without FuDR, 25° C. then ~22° C., control 18.4±0.4): 23.4±0.4
Lifespan increase (FIG. 6A) ([5]; wild-type, in liquid, with FuDR, 20° C., ~60 μM): ~33.2%
Lifespan, mean±SD (FIG. 6A) ([5]; wild-type, in liquid, with FuDR, 20° C., ~60 μM, control 21.1±0.5): 28.1±1.1

O=C(Nc1ccc(Cl)c(Cl)c1)c1ccc([N+](=O)[O-])o1 [Gr-1G]
fold induction at 10 µM [1, 6]: 1.32
fold induction at 10 µM [1, 7]: 1.89
B = MMS resistant [1, 8]: 0
B = MMS resistant ([1]; summary score): 0
D = Triple resistant ([1]; summary score): 0
L = PARP inhibition [2]: 0
CdCl2-resistant [3]: YES
H2O2- & CdCl2-resistant [3]: YES
fold induction at 10 µM [3, 9]: 3.81
fold induction at 10 µM [3, 10]: 7.21
CdCl2-resistant ([3]; WI-38 cells, 10 μM): YES
H2O2- & CdCl2-resistant ([3]; WI-38 cells, 10 μM, both stressors): YES
Assay 4: H2O2- & Cd-resistant [3]: YES
Assay 2: Cadmium-resistant [3]: YES
A = Cadmium resistant [3, 8]: 1
A = Cadmium resistant ([3]; summary score): 1
C = H2O2- & Cd-resistant ([3]; summary score): 1
activity at 10 µM [4, 11]: 150%
activity at 10 µM [4, 12]: 179%
activity at 10 µM [4, 13]: 63.3%
activity at 10 µM [4, 14]: 256%
P = Potential DNA-damaging [4]: 0
R = Potential DNA damaging [4]: 0
ILS at 60 µM [5, 16]: 1.3%
ILS at 60 µM [5, 17]: 10.2%
ILS at 60 µM [5, 18]: 5.8%
ILS at 60 µM [5, 19]: 24.7%
ILS at 66 µM [5, 20]: 1.3%
ILS at 66 µM [5, 21]: 10.2%
ILS at 66 µM [5, 22]: 24.7%
ILS at 66 µM [5, 23]: 5.8%
O = Life span- extending scores in worms [5]: 1 (1 for lifespan extension observed in 2 trials)
M = Lifespan-extending scores in worms [5]: 1 (1 for lifespan extension observed in 2 trials)

O=C(NCc1cccnc1)/C(=C\c1ccc(Br)cc1)S(=O)(=O)c1ccccc1 [Gr-7B]
fold induction at 10 µM [1, 6]: 0.39
fold induction at 10 µM [1, 7]: 1.45
B = MMS resistant [1, 8]: 0
B = MMS resistant ([1]; summary score): 0
D = Triple resistant ([1]; summary score): 0
L = PARP inhibition [2]: 0
fold induction at 10 µM [3, 9]: 0.12
fold induction at 10 µM [3, 10]: 0.26
Assay 4: H2O2- & Cd-resistant [3]: YES
Assay 2: Cadmium-resistant [3]: YES
A = Cadmium resistant [3, 8]: 0
A = Cadmium resistant ([3]; summary score): 1
C = H2O2- & Cd-resistant ([3]; summary score): 1
activity at 10 µM [4, 11]: 695%
activity at 10 µM [4, 12]: 348%
activity at 10 µM [4, 13]: 74%
activity at 10 µM [4, 14]: 31.3%
activity at 10 µM [4, 15]: 4.2%
P = Potential DNA-damaging [4]: 0
R = Potential DNA damaging [4]: 0
ILS at 60 µM [5, 16]: 1.3%
ILS at 60 µM [5, 17]: 3.5%
ILS at 60 µM [5, 19]: 14.9%
ILS at 66 µM [5, 20]: 1.3%
ILS at 66 µM [5, 21]: 3.5%
ILS at 66 µM [5, 22]: 14.9%
O = Life span- extending scores in worms [5]: 0
M = Lifespan-extending scores in worms [5]: 0

— patent publication US11413278B2, “Compounds and methods for promoting stress resistance” (priority 2015, dated 2022)
